Data: patent publication US5886007A (priority 1997, dated 1999)
Where two headings read alike, the source gives them in different places.

Columns and labels:
rat brain AChE = target: T1, rat brain AChE (Rattus norvegicus, UniProt P37136); assay: biochemical
T1 construct: Rat brain homogenate prepared in 10 ml/g 10 mM Tris, pH 7.4, plus 1% Triton X-100 was used as a source of AChE; from tissue; host or cells: rat brain homogenate (10 mM Tris, pH 7.4, 1% Triton X-100)

rat serum BChE = target: T2, rat serum BChE (Rattus norvegicus, UniProt Q9JKC1); assay: biochemical
T2 construct: rat serum was the source of BChE; from tissue; host or cells: rat serum
T2 sequence (Q9JKC1 24-597): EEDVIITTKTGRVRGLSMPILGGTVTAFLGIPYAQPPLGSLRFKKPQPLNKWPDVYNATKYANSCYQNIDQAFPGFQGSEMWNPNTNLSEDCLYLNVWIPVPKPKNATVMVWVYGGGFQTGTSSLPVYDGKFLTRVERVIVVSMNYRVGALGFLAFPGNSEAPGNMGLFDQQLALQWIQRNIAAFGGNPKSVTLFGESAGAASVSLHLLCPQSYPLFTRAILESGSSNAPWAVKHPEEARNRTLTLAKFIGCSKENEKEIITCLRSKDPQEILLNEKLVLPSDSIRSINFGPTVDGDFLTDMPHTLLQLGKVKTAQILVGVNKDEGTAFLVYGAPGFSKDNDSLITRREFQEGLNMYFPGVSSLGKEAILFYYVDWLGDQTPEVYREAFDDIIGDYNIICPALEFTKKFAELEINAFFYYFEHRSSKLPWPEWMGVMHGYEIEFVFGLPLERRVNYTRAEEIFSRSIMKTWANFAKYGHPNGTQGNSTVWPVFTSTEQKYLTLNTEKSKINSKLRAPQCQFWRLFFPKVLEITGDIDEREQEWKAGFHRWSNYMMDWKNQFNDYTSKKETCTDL

[1] = current use of THA limited; cited from earlier work

T1 sequence (P37136 32-614): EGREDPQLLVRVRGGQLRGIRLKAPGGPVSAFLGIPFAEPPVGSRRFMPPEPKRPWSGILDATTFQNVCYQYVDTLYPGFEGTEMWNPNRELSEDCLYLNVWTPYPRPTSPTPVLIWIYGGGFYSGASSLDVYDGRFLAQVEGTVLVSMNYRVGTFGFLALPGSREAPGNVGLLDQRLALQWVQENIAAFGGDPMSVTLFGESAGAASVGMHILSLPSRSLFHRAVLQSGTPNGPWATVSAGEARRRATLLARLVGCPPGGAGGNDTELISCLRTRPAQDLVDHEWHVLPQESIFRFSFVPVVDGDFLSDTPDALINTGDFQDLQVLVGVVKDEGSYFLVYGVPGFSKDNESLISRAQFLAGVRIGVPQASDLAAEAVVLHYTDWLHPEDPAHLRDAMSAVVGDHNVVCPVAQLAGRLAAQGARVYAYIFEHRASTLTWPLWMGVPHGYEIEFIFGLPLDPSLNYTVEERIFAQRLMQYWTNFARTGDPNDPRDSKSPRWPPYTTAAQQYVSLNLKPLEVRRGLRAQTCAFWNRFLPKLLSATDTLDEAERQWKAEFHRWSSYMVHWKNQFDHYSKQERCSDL

Compound | IC50 (rat serum BChE) [nM] | IC50 (rat brain AChE) [nM] | Selectivity (rat brain AChE) | further results
c1ccc2c(NCCCCCCCNc3c4c(nc5ccccc35)CCCC4)c3c(nc2c1)CCCC3 [1a, 1-7-n-Heptylene-bis-9,9'-amino-1,2,3,4-tetrahydroacridine] |  |  |  | times more potent than THA in inhibiting rat brain AChE (rat brain AChE): 1000 times
c1ccc2c(NCCCCCCCCNc3c4c(nc5ccccc35)CCCC4)c3c(nc2c1)CCCC3 [1b, 1-8-n-Octylene-bis-9,9'-amino-1,2,3,4-tetrahydroacridine] | 216 | 0.5 | 432.0 | 
c1ccc2c(NCCCCCCCCCCNc3c4c(nc5ccccc35)CCCC4)c3c(nc2c1)CCCC3 [1d, 1-10-n-Decylene-bis-9,9'-amino-1,2,3,4-tetrahydroacridine] | 360 | 2 | 180.0 | 
c1ccc(CCCCNc2c3c(nc4ccccc24)CCCC3)cc1 [2a, (4-Phenyl-butyl)-(1,2,3,4-tetrahydro-acridine-9-yl)-amine] |  | 1500 |  | 
c1ccc(CCCCCNc2c3c(nc4ccccc24)CCCC3)cc1 [2b, (5-Phenyl-pentyl)-(1,2,3,4-tetrahydro-acridine-9-yl)-amine] | 500 |  | 0.3 | IC50 (rat brain AChE; pH 7.4, read-out: IC50 rat brain AChE): 1500 nM
c1ccc(CCCCCCNc2c3c(nc4ccccc24)CCCC3)cc1 [2c, (6-Phenyl-hexyl)-(1,2,3,4-tetrahydro-acridine-9-yl)-amine] | 800 | 520 | 1.5 | 
c1ccc(CCCCCCCNc2c3c(nc4ccccc24)CCCC3)cc1 [2d, (7-Phenyl-heptyl)-(1,2,3,4-tetrahydro-acridine-9-yl)-amine] |  | 360 | 2.8 | IC50 (rat serum BChE; read-out: IC50 rat serum BChE): 1000 nM
c1ccc(CCCCCCCCNc2c3c(nc4ccccc24)CCCC3)cc1 [2e, (8-Phenyl-octyl)-(1,2,3,4-tetrahydro-acridine-9-yl)-amine] | 2000 | 220 | 9.1 | potency of 2e and THA relative to compound 1a against rat brain AChE (rat brain AChE): weaker; potency ranking within class / chain length dependence of AChE inhibition (rat brain AChE): the most potent; relative potency of 2e and THA against rat brain AChE (rat brain AChE): nearly equipotent
c1ccc(CCCCCCCCCNc2c3c(nc4ccccc24)CCCC3)cc1 [2f, (9-Phenyl-nonyl)-(1,2,3,4-tetrahydro-acridine-9-yl)-amine] | 10000 | 3000 | 3.3 | 
c1ccc(CCCCCCCCCCNc2c3c(nc4ccccc24)CCCC3)cc1 [2g, (10-Phenyl-decyl)-(1,2,3,4-tetrahydro-acridine-9-yl)-amine] |  | 3000 |  | 
Nc1c2c(nc3ccccc13)CCCC2 [THA, 9-amino-1,2,3,4-tetrahydroacridine] |  |  |  | hepatoxicity [1]: serious hepatoxicity
